Assay results published in patent publication US20240307372A1, “COMPOSITIONS AND METHODS TO IMPROVE BENEFIT OF SUBOPTIMALLY ADMINISTERED THERAPEUCTICS FOR THE TREATMENT OF BENIGN AND NEOPLASTIC DISEASES, INFECTIONS, INFLAMMATORY, METABOLIC AND IMMUNOLOGIAL DISEASES” (priority 2023, published 2024).
Several values for one entry are separate records, joined by “and”; a condition that tells them apart may be missing. Equal entries are not always repeated. Where two headings read alike, the source gives them in different places.

Key:
[1] = tested on: CML colonies (secondary clonal growth); assay: Replating assay, secondary clonal growth of CML colonies; assay type: cell-based, human; conditions: colonies from original cultures with ES-3000 @10 μM
[2] = tested on: human chronic myeloid leukemia (CML) progenitors; assay: Colony forming cell (CFC) assay on CML patient bone marrow cells, methylcellulose-based medium; conditions: for BFU-E colonies / CFU-E colonies / Total Erythroid colonies: no Epo
[3] = tested on: HCT116 cells; conditions: human colorectal (HCT116) cells; cited from earlier work
[4] = tested on: colorectal (CT-26) xenografts; conditions: colorectal (CT-26) mouse xenografts; cited from earlier work
[5] = target: calmodulin (CaM) (Homo sapiens, UniProt P0DP23); conditions: cited from earlier work
[6] = target: T1, CAMKII gamma (Homo sapiens, UniProt Q13555); assay: CAMKII gamma kinase activity, ADP Glo (Promega); assay type: biochemical; conditions: for CAMKII gamma kinase activity inhibition (in words): 10 or 50 uM ATP
T1 construct: purchased Promega V3531
Method: An enzymatic study was conducted to evaluate the inhibition of CAMKII gamma by ES-3000 (Tetrandrine). CAMKII gamma kinase activity was measured using […] purchased from Promega following the Promega protocol. CAMKII enzyme system purchased from Promega (V3531). ADP Glo was used for detection. Assay optimized for linearity of protein and time. Conditions for inhibitor screening 25 ng CAMKII, 20 min. incubations, inhibitor or DMSO (5%) at RT in 20 uL total volume. Inhibitor, ATP (10 or 50 uM), substrates and buffer added to tubes and reactions started with enzyme. […] Reactions terminated at 20 min. by adding ADP Glo reaction following manufactures instructions. All reactions were done in duplicate. Calculations of percent (%) inhibition determined by dividing the mean activity at each condition by the mean of the DMSO control times 100.

[7] = tested on: beta-Actin; assay: beta-Actin level in K562 cell extracts by western blot; assay type: cell-based, human; conditions: K562 cells treated with up to 40 uM
Method: Briefly, the method to quantitate β-catenin protein by western blot was as follows: Extracts of K562 cells (untreated and treated with various concentrations of tetrandrine) were concentrated to 0.4 ml using Centricon-3 column to yield a protein concentration of approximately 2 mg/ml. Samples were mixed with 5× Laemmli buffer and loaded on 8-16% Tris-Glycine gradient gel, then polyacrylamide gel electrophoresis (PAGE) was run at 85 volts for 100 minutes at 6° C. and proteins were transferred on PVDF membrane at 70 Volts for 85 minutes at 8° C. Membrane was blocked with 5% milk in Tris-buffered Saline containing 0.1% TW-20 (TBST). Membrane was incubated with primary antibody for 18 hours at 4° C. followed by 3 washes, 5 minutes each, with TBST and incubated with secondary antibody in TBST for 2 hours at 25° C. The membrane was washed again with TBST as described above and incubated with ECL-2 substrate for 5 minutes and scanned on Kodak Image Station. After scan, blot was stripped of primary and secondary antibodies and re-probed with anti-beta Actin antibody as described above. Protein bands in WB images were quantitated using Molecular Imaging software pack MIS-4.0 software and tabulated in Excel spreadsheet.

[8] = tested on: leukemia cell lines; conditions: cited from earlier work
[9] = tested on: human breast, colon carcinoma, and hepatoma cell lines; conditions: read-out: IC50 range; cited from earlier work
[10] = target: Pgp (Homo sapiens, UniProt P08183); conditions: cited from earlier work
[11] = cited from earlier work
[12] = IV, cited from earlier work
[13] = tested on: K562 cells; assay: K562 cell viability after TET exposure (trypan blue); assay type: cell-based, human; conditions: 24 hours
Method: Briefly, the method for the first portion of the study was as follows: K562 cells were grown and maintained in medium (RPMI, 10% FBS, Pen Strep and […]). Cells were then exposed to TET, 0, 0.1, 1, 5, 10, 20 & 40 μM for 24 hours at 37° C. Following drug exposure, cell viability was checked using trypan blue, followed by cell lysis. Supernatants were collected and test for protein concentration using a Pierce BCA kit. The protein assay tubes were read on a Spectramax at 562 nm and Softmax@ software was used for protein concentration analysis.
The effect of TET treatment on K562 percent cell viability is depicted in Table 2 and is graphically illustrated in FIG. 2.

T1 sequence (Q13555 whole entry): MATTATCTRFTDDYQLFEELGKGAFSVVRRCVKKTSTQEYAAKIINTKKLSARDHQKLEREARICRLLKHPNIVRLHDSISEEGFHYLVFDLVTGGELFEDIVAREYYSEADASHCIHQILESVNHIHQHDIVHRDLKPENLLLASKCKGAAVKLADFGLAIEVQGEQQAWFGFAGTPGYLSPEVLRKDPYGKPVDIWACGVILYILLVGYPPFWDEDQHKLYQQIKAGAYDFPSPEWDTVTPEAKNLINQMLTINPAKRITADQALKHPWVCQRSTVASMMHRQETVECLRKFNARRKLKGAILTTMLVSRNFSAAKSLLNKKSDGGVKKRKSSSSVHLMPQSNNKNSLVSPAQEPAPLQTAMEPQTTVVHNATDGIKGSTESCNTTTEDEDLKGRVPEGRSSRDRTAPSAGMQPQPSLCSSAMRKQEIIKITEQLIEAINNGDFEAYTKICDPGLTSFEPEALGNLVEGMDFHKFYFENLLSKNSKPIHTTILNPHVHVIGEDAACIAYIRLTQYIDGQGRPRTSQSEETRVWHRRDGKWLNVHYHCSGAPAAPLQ
Sequence of Pgp (P08183 whole entry): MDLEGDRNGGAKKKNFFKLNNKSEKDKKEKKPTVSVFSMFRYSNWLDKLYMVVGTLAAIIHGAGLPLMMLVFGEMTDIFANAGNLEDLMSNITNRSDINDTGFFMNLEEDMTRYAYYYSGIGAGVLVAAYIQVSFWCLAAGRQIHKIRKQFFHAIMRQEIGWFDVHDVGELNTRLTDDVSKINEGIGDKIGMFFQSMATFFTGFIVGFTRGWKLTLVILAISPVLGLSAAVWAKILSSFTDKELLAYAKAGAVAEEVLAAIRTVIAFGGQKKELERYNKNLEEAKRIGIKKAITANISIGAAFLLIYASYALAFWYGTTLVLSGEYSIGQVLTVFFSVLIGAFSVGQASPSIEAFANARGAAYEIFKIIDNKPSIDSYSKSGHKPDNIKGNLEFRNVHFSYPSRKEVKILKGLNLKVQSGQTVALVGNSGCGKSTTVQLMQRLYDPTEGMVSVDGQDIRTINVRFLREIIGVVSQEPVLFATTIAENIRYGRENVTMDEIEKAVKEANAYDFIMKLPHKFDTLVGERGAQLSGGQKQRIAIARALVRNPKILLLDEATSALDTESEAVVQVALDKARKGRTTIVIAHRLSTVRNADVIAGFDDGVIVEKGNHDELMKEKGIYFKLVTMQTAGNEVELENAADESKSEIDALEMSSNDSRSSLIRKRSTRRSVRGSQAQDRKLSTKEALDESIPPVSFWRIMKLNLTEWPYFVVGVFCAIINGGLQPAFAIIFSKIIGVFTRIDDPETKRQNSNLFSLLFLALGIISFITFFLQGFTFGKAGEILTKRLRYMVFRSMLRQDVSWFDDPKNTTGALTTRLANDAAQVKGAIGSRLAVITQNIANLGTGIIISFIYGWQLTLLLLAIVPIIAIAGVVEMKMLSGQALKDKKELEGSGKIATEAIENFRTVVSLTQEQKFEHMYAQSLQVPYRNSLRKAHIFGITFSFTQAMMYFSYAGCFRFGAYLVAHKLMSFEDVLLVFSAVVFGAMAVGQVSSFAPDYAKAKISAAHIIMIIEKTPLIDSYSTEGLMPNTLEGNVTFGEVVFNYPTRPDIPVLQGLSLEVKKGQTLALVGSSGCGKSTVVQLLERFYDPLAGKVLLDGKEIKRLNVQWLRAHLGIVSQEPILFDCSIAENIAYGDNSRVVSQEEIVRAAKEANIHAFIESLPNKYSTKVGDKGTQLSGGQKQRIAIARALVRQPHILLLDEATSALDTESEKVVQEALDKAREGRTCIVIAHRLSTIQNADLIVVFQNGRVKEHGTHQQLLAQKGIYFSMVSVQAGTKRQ

6,6′,7,12-tetramethoxy-2,2′-dimethyl-berbaman [ES-3000]
average CFC per well (secondary growth) [1]: three | wells supported secondary growth with one or more colony [1]: 54.2% | CFU-GM colonies ([2]; 0.1 μM): 55 ± 5 | Total CFC ([2]; 0.1 μM): 88 ± 8 | BFU-E colonies ([2]; 0.1 μM): 22 ± 4 | CFU-E colonies ([2]; 0.1 μM): 11 ± 1 | Total Erythroid colonies ([2]; 0.1 μM): 33 ± 3 | CFU-GM colonies ([2]; 1 μM): 54 ± 2 | Total CFC ([2]; 1 μM): 86 ± 4 | BFU-E colonies ([2]; 1 μM): 22 ± 4 | CFU-E colonies ([2]; 1 μM): 10 ± 2 | Total Erythroid colonies ([2]; 1 μM): 33 ± 3 | CFU-GM colonies ([2]; 3 μM): 52 ± 5 | Total CFC ([2]; 3 μM): 75 ± 6 | BFU-E colonies ([2]; 3 μM): 14 ± 3 | CFU-E colonies ([2]; 3 μM): 9 ± 2 | Total Erythroid colonies ([2]; 3 μM): 23 ± 2 | IC50 ([2]; read-out: Erythroid IC50 ± 95% CI, Human progenitors): 3.12 ± 0.01 µM | wnt/β-catenin signaling and tumor growth [3]: inhibit wnt/β-catenin signaling and tumor growth | tumor growth [4]: reduced tumor growth by inducing apoptosis | binding to calmodulin (CaM) [5]: bind competitively to calmodulin (CaM) | % inhibition ([6]; 30 uM, 10 uM ATP): 29.1% and 29% | CamKIIγ activity, mean ([6]; 30 uM, 10 uM ATP): 3.09 units | CamKIIγ activity, units (duplicates) ([6]; 30 uM, 10 uM ATP): 2.75 units and 3.43 units | kinase activity, % of DMSO control ([6]; 30 uM, 10 uM ATP): 71% | % inhibition ([6]; 30 uM, 50 uM ATP): 15% | CamKIIγ activity, mean ([6]; 30 uM, 50 uM ATP): 10.55 units | CamKIIγ activity, units (duplicates) ([6]; 30 uM, 50 uM ATP): 10.4 units and 10.7 units | kinase activity, % of DMSO control ([6]; 30 uM, 50 uM ATP): 85% | % inhibition ([6]; 100 uM, 10 uM ATP): 34.2% and 34% | CamKIIγ activity, mean ([6]; 100 uM, 10 uM ATP): 2.87 units | CamKIIγ activity, units (duplicates) ([6]; 100 uM, 10 uM ATP): 2.5 units and 3.24 units | kinase activity, % of DMSO control ([6]; 100 uM, 10 uM ATP): 66% | % inhibition ([6]; 100 uM, 50 uM ATP): 36% | CamKIIγ activity, mean ([6]; 100 uM, 50 uM ATP): 7.955 units | CamKIIγ activity, units (duplicates) ([6]; 100 uM, 50 uM ATP): 8.81 units and 7.1 units | kinase activity, % of DMSO control ([6]; 100 uM, 50 uM ATP): 64% | % inhibition ([6]; 250 uM, 10 uM ATP): 90.6% and 91% | CamKIIγ activity, mean ([6]; 250 uM, 10 uM ATP): 0.41 units | CamKIIγ activity, units (duplicates) ([6]; 250 uM, 10 uM ATP): 0.34 units and 0.48 units | kinase activity, % of DMSO control ([6]; 250 uM, 10 uM ATP): 9% | CAMKII gamma kinase activity inhibition (in words) [6]: inhibited CAMKII gamma kinase activity in a dose dependent manner | CAMKII gamma kinase activity inhibition (in words) ([6]; listed as TET): inhibited the activation of CaMKIIγ in a dose dependent manner | beta-Actin level (quantitation of protein bands) [7]: not affected significantly | 50% growth inhibition (Log GI50) ([8]; NCI 60 cell line screen): −5.0 to −6.6 | GI50 ([8]; read-out: 50% growth inhibition (GI50), NCI 60 cell line screen): 0.25 to 10 µM | IC50 [9]: 1.53 to 10.4 µM | Pgp substrate [10]: not a substrate of Pgp | function of Pgp [10]: directly inhibits the function of Pgp in a dose-dependent manner | protein binding [11]: highly protein bound | recommended dose for a Phase II study ([12]; daily ×5, repeated every 2 weeks): 200 mg/m2 | recommended dose for a Phase II study ([12]; single dose repeated weekly): 300 mg/m2 | % Viability ([13]; 0.1 μM): 82.4% | % Viability ([13]; 1 μM): 79.2% | % Viability ([13]; 5 μM): 81.8% | % Viability ([13]; 10 μM): 79.7% | % Viability ([13]; 20 μM): 76.5% | % Viability ([13]; 40 μM): 56.4%
